# Patent US4017540A, “Method of use, composition, and compounds” (The Upjohn Company, priority 1972, dated 1977)
# Several values for one entry are separate records, joined by “and”; a condition that tells them apart may be missing. Equal entries are not always repeated. Entries after “also recorded” stand apart in the source; their conditions may differ.
# Tests used:
# insects and mites = assay: insecticidal and miticidal activity (general); details: in vivo
# anorexigenic activity = details: in vivo
# parasitic worms = assay: anthelmintic activity (general; sheep); details: in vivo
# Oesophagostomum [1] = assay: preliminary test with worm infested lambs, Oesophagostomum; assay type: in vivo; details: one lamb, 300 mg./kg. oral
# Experimental: (§1) A preliminary test with lambs was effected by maintaining worm infested lambs under satisfactory environmental conditions with feed and water available ad libitum. Pretreatment fecal examinations were made in order to characterize and evaluate the parasitism of each animal. The presence of helminth ova was recorded in terms of the number of eggs per gram of feces.
# (§2) On the day of treatment, each lamb was weighed and a dosage for it was calculated in terms of milligrams of compound per kilogram of body weight. The calculated dosage of compound was pulverized and packed in a gelatin capsule for oral administration.
# Trichuris = assay: Example 31 lamb test, Trichuris; assay type: in vivo; details: for average number of Trichuris remaining: group average; for total number of Trichuris remaining: group total
# Experimental: (§3) In th comprehesive test with 100 mg./kg. and 200 mg./kg. dosages of p-toluoyl chloride phenylhydrazone, five lambs were used for each dosage level, and five lambs were maintained as unmedicated controls. Daily egg counts in the feces were made before and after treatment. The lambs were killed and examined post-mortem for worms present 11 days after treatment. Helminth populations were recovered, enumerated and identified.
# (§4) The mean percentage efficacy against specific helminths in the test lambs was calculated by subtracting the average number of the helminths observed in the treated lambs, postmortem, from the average number observed in the unmedicated controls, post-mortem; dividing the remainder by the latter average number; and multiplying by 100. Accordingly, the means percentage efficacies against the various helminths identified in the test lambs were calculated and found to be as follows: […]
# Oesophagostomum [2] = assay: Example 31 lamb test, Oesophagostomum; assay type: in vivo; details: for average number of Oesophagostomum remaining: group average; for total number of Oesophagostomum remaining: group total; for mean percentage efficacy against Oesophagostomum: vs unmedicated controls
# Experimental: (§5) At both dosages, the compound p-toluoyl chloride phenylhydrazone was efficacious against Haemonchus, Ostertagia, Nematodirus, Trichostrongylus, Strongyloides, Oesophagostomum, and Cooperia.
# as §3, §4
# Strongyloides [3] = assay: Example 31 lamb test, Strongyloides; assay type: in vivo; details: for average number of Strongyloides remaining: group average; for total number of Strongyloides remaining: group total; for mean percentage efficacy against Strongyloides: vs unmedicated controls
# Experimental: as §5, §3, §4
# Cooperia = assay: Example 31 lamb test, Cooperia; assay type: in vivo; details: for average number of Cooperia remaining: group average; for total number of Cooperia remaining: group total; for mean percentage efficacy against Cooperia: vs unmedicated controls
# Experimental: as §5, §3, §4
# Ostertagia [4] = assay: Example 31 lamb test, Ostertagia; assay type: in vivo; details: for average number of Ostertagia remaining: group average; for total number of Ostertagia remaining: group total; for mean percentage efficacy against Ostertagia: vs unmedicated controls
# Experimental: as §5, §3, §4
# Nematodirus [5] = assay: Example 31 lamb test, Nematodirus; assay type: in vivo; details: for average number of Nematodirus remaining: group average; for total number of Nematodirus remaining: group total; for mean percentage efficacy against Nematodirus: vs unmedicated controls
# Experimental: as §5, §3, §4
# Haemonchus [6] = assay: Example 31 lamb test, Haemonchus; assay type: in vivo; details: for average number of Haemonchus remaining: group average; for total number of Haemonchus remaining: group total; for mean percentage efficacy against Haemonchus: vs unmedicated controls
# Experimental: as §5, §3, §4
# Strongyloides [7] = assay: preliminary test with worm infested lambs, Strongyloides; assay type: in vivo; details: one lamb
# Experimental: as §1, §2
# Trichostrongylus [8] = assay: preliminary test with worm infested lambs, Trichostrongylus; assay type: in vivo; details: one lamb
# Experimental: as §1, §2
# lambs = details: in vivo
# Experimental: as §3, with “At both dosages, the compound p-toluoyl chloride phenylhydrazone was efficacious against Haemonchus, Ostertagia, Nematodirus, Trichostrongylus, Strongyloides, Oesophagostomum, and Cooperia. […] In” for “In”
# Trichuris ovis = assay: preliminary test with worm infested lambs, Trichuris; assay type: in vivo; details: one lamb, 400 mg./kg. oral
# Experimental: as §1, §2
# Trichostrongylus [9] = assay: Example 31 lamb test, Trichostrongylus; assay type: in vivo; details: for average number of Trichostrongylus remaining: group average; for total number of Trichostrongylus remaining: group total; for mean percentage efficacy against Trichostrongylus: vs unmedicated controls
# Experimental: as §5, §3, §4
# tapeworm Moniezia = assay: Example 31 lamb test, tapeworm; assay type: in vivo
# Experimental: as §5, §3, §4
# Haemonchus [10] = assay: preliminary test with worm infested lambs, Haemonchus; assay type: in vivo; details: one lamb, 300 mg./kg. oral
# Experimental: as §1, §2
# helminths [11] = assay: preliminary test with worm infested lambs, helminths overall; assay type: in vivo; details: one lamb
# Experimental: as §1, §2
# In this preliminary test one lamb received 200 mg. p-toluoyl chloride phenylhydrazone per kilogram of body weight - a total dosage of 5.0 g.
# Bunostomum = assay: Example 31 lamb test, Bunostomum; assay type: in vivo; details: 200 mg./kg.
# Experimental: as §5, §3, §4
# helminths [12] = assay: Example 31 lamb test, helminths overall; assay type: in vivo; details: 100 mg. and 200 mg. per kg
# Experimental: as §5, §3, §4
# Ostertagia [13] = assay: preliminary test with worm infested lambs, Ostertagia; assay type: in vivo; details: one lamb
# Experimental: as §1, §2
# Nematodirus [14] = assay: preliminary test with worm infested lambs, Nematodirus; assay type: in vivo; details: one lamb
# Experimental: as §1, §2
structure (smiles),measurement,setting,value
"O=[N+]([O-])c1ccc(NN=C(Cl)c2ccccc2)c([N+](=O)[O-])c1 [Benzoyl chloride (2,4-dinitrophenyl)hydrazone, reference compound]",insecticidal and miticidal activity,insects and mites,relatively inactive
"ClC(=NNc1cc(Cl)ccc1Cl)c1ccccc1 [benzoyl chloride (2,5-dichlorophenyl)hydrazone]",anorexigenic activity,anorexigenic activity,have anorexigenic activity
ClC(=NNc1ccccc1)c1ccccc1 [benzoyl chloride phenylhydrazone],anthelmintic activity,parasitic worms,effective against worms; also recorded: efficacious anthelmintic agents
"ClC(=NNc1c(Cl)cc(Cl)cc1Cl)c1ccc(Cl)cc1 [p-chlorobenzoyl chloride (2,4,6-trichlorophenyl)hydrazone]",anorexigenic activity,anorexigenic activity,anorexigenic activity
Cc1ccc(C(Cl)=NNc2ccccc2)cc1 [p-toluoyl chloride phenylhydrazone],activity against Oesophagostomum (egg counts and necropsy),Oesophagostomum [1],established activity
same,"number of Trichuris recovered at necropsy, individual lamb",Trichuris; 100 mg./kg.,31 and 83 and 3 and 37 and 4
same,average number of Trichuris remaining,Trichuris; 100 mg./kg.,32
same,total number of Trichuris remaining,Trichuris; 100 mg./kg.,158
same,mean percentage efficacy against Trichuris,"Trichuris; 100 mg./kg., vs unmedicated controls",0%
same,"number of Trichuris recovered at necropsy, individual lamb",Trichuris; 200 mg./kg.,6 and 64 and 28 and 56
same,average number of Trichuris remaining,Trichuris; 200 mg./kg.,39
same,total number of Trichuris remaining,Trichuris; 200 mg./kg.,154
same,efficacy against Oesophagostomum (in words),Oesophagostomum [2]; 100 mg. and 200 mg. per kg,efficacious
same,"number of Oesophagostomum recovered at necropsy, individual lamb",Oesophagostomum [2]; 100 mg./kg.,0
same,average number of Oesophagostomum remaining,Oesophagostomum [2]; 100 mg./kg.,0
same,total number of Oesophagostomum remaining,Oesophagostomum [2]; 100 mg./kg.,0
same,mean percentage efficacy against Oesophagostomum,Oesophagostomum [2]; 100 mg./kg.,100%
same,"number of Oesophagostomum recovered at necropsy, individual lamb",Oesophagostomum [2]; 200 mg./kg.,0 and 3
same,average number of Oesophagostomum remaining,Oesophagostomum [2]; 200 mg./kg.,< 1
same,total number of Oesophagostomum remaining,Oesophagostomum [2]; 200 mg./kg.,3
same,mean percentage efficacy against Oesophagostomum,Oesophagostomum [2]; 200 mg./kg.,90.6%
same,efficacy against Strongyloides (in words),Strongyloides [3]; 100 mg. and 200 mg. per kg,efficacious
same,"number of Strongyloides recovered at necropsy, individual lamb",Strongyloides [3]; 100 mg./kg.,2 and 0 and 11
same,average number of Strongyloides remaining,Strongyloides [3]; 100 mg./kg.,3
same,total number of Strongyloides remaining,Strongyloides [3]; 100 mg./kg.,13
same,mean percentage efficacy against Strongyloides,Strongyloides [3]; 100 mg./kg.,97.9%
same,"number of Strongyloides recovered at necropsy, individual lamb",Strongyloides [3]; 200 mg./kg.,0
same,average number of Strongyloides remaining,Strongyloides [3]; 200 mg./kg.,0
same,total number of Strongyloides remaining,Strongyloides [3]; 200 mg./kg.,0
same,mean percentage efficacy against Strongyloides,Strongyloides [3]; 200 mg./kg.,100%
same,anthelmintic activity,parasitic worms,effective against worms; also recorded: efficacious anthelmintic agents
same,efficacy against Cooperia (in words),Cooperia; 100 mg. and 200 mg. per kg,efficacious
same,"number of Cooperia recovered at necropsy, individual lamb",Cooperia; 100 mg./kg.,0
same,average number of Cooperia remaining,Cooperia; 100 mg./kg.,0
same,total number of Cooperia remaining,Cooperia; 100 mg./kg.,0
same,mean percentage efficacy against Cooperia,"Cooperia; 100 mg./kg., *= only one lamb infected",100%
same,"number of Cooperia recovered at necropsy, individual lamb",Cooperia; 200 mg./kg.,0
same,average number of Cooperia remaining,Cooperia; 200 mg./kg.,0
same,total number of Cooperia remaining,Cooperia; 200 mg./kg.,0
same,mean percentage efficacy against Cooperia,Cooperia; 200 mg./kg.,100%
same,efficacy against Ostertagia (in words),Ostertagia [4]; 100 mg. and 200 mg. per kg,efficacious
same,"number of Ostertagia recovered at necropsy, individual lamb",Ostertagia [4]; 100 mg./kg.,0
same,average number of Ostertagia remaining,Ostertagia [4]; 100 mg./kg.,0
same,total number of Ostertagia remaining,Ostertagia [4]; 100 mg./kg.,0
same,mean percentage efficacy against Ostertagia,Ostertagia [4]; 100 mg./kg.,100%
same,"number of Ostertagia recovered at necropsy, individual lamb",Ostertagia [4]; 200 mg./kg.,0
same,average number of Ostertagia remaining,Ostertagia [4]; 200 mg./kg.,0
same,total number of Ostertagia remaining,Ostertagia [4]; 200 mg./kg.,0
same,mean percentage efficacy against Ostertagia,Ostertagia [4]; 200 mg./kg.,100%
same,efficacy against Nematodirus (in words),Nematodirus [5]; 100 mg. and 200 mg. per kg,efficacious
same,"number of Nematodirus recovered at necropsy, individual lamb",Nematodirus [5]; 100 mg./kg.,0
same,average number of Nematodirus remaining,Nematodirus [5]; 100 mg./kg.,0
same,total number of Nematodirus remaining,Nematodirus [5]; 100 mg./kg.,0
same,mean percentage efficacy against Nematodirus,Nematodirus [5]; 100 mg./kg.,100%
same,"number of Nematodirus recovered at necropsy, individual lamb",Nematodirus [5]; 200 mg./kg.,0
same,average number of Nematodirus remaining,Nematodirus [5]; 200 mg./kg.,0
same,total number of Nematodirus remaining,Nematodirus [5]; 200 mg./kg.,0
same,mean percentage efficacy against Nematodirus,"Nematodirus [5]; 200 mg./kg., *= only one lamb infected",100%
same,efficacy against Haemonchus (in words),Haemonchus [6]; 100 mg. and 200 mg. per kg,efficacious
same,"number of Haemonchus recovered at necropsy, individual lamb",Haemonchus [6]; 100 mg./kg.,2 and 0
same,average number of Haemonchus remaining,Haemonchus [6]; 100 mg./kg.,< 1
same,total number of Haemonchus remaining,Haemonchus [6]; 100 mg./kg.,2
same,mean percentage efficacy against Haemonchus,Haemonchus [6]; 100 mg./kg.,99.9%
same,"number of Haemonchus recovered at necropsy, individual lamb",Haemonchus [6]; 200 mg./kg.,0 and 1
same,average number of Haemonchus remaining,Haemonchus [6]; 200 mg./kg.,< 1
same,total number of Haemonchus remaining,Haemonchus [6]; 200 mg./kg.,1
same,mean percentage efficacy against Haemonchus,Haemonchus [6]; 200 mg./kg.,99.9%
same,activity against Strongyloides (egg counts and necropsy),Strongyloides [7]; 300 mg./kg. oral,established activity
same,activity against Strongyloides,Strongyloides [7]; 400 mg./kg. oral,Activity
same,activity against Trichostrongylus (egg counts and necropsy),Trichostrongylus [8]; 300 mg./kg. oral,established activity
same,activity against Trichostrongylus,Trichostrongylus [8]; 400 mg./kg. oral,Activity
same,signs of toxicity to the lambs,lambs,absence of signs of toxicity
same,activity against Trichuris ovis,Trichuris ovis,lack of noticeable activity
same,efficacy against Trichostrongylus (in words),Trichostrongylus [9]; 100 mg. and 200 mg. per kg,efficacious
same,"number of Trichostrongylus recovered at necropsy, individual lamb",Trichostrongylus [9]; 100 mg./kg.,0 and 15
same,average number of Trichostrongylus remaining,Trichostrongylus [9]; 100 mg./kg.,4
same,total number of Trichostrongylus remaining,Trichostrongylus [9]; 100 mg./kg.,15
same,mean percentage efficacy against Trichostrongylus,Trichostrongylus [9]; 100 mg./kg.,98.7%
same,"number of Trichostrongylus recovered at necropsy, individual lamb",Trichostrongylus [9]; 200 mg./kg.,0
same,average number of Trichostrongylus remaining,Trichostrongylus [9]; 200 mg./kg.,0
same,total number of Trichostrongylus remaining,Trichostrongylus [9]; 200 mg./kg.,0
same,mean percentage efficacy against Trichostrongylus,Trichostrongylus [9]; 200 mg./kg.,100%
same,activity against the tapeworm Moniezia,tapeworm Moniezia; 100 mg. and 200 mg. per kg,activity against the tapeworm Moniezia was observed
same,activity against tapeworm,tapeworm Moniezia; 200 mg./kg.,positive
same,"number of tapeworm recovered at necropsy, individual lamb",tapeworm Moniezia; 200 mg./kg.,0
same,average number of tapeworm remaining,"tapeworm Moniezia; 200 mg./kg., group average",0
same,total number of tapeworm remaining,"tapeworm Moniezia; 200 mg./kg., group total",0
same,activity against Haemonchus (egg counts and necropsy),Haemonchus [10],established activity
same,effectiveness of the dosage,helminths [11]; 200 mg./kg. oral,somewhat effective
same,helminth eggs in the feces,helminths [11]; 200 mg./kg. oral,significantly fewer helminth eggs in the feces
same,numbers of helminths at necropsy,helminths [11]; 200 mg./kg. oral,reduced numbers of helminths at necropsy
same,helminth egg counts,helminths [11]; 300 mg./kg. oral,reduced significantly (except Trichuris)
same,worm infestation on necropsy,helminths [11]; 300 mg./kg. oral,low
same,egg counts,helminths [11]; 400 mg./kg. oral,significantly lowered egg counts
same,worms at necropsy,helminths [11]; 400 mg./kg. oral,absence of worms
same,"number of Bunostomum recovered at necropsy, individual lamb",Bunostomum,2 and 1
same,average number of Bunostomum remaining,Bunostomum; group average,1.5
same,total number of Bunostomum remaining,Bunostomum; group total,3
same,mean percentage efficacy against Bunostomum,Bunostomum; vs unmedicated controls,97%
same,overall anthelmintic activity in lambs,helminths [12],excellent activity
same,activity against Ostertagia (egg counts and necropsy),Ostertagia [13]; 300 mg./kg. oral,established activity
same,activity against Ostertagia,Ostertagia [13]; 400 mg./kg. oral,Activity
same,activity against Nematodirus (egg counts and necropsy),Nematodirus [14]; 300 mg./kg. oral,established activity
same,activity against Nematodirus,Nematodirus [14]; 400 mg./kg. oral,Activity
Fc1c(F)c(F)c(C(Cl)=NNc2ccccc2)c(F)c1F [pentafluorobenzoyl chloride phenylhydrazone],insecticidal and miticidal activity,insects and mites,outstanding insecticidal and miticidal agent
